Test results taken from ChEMBL document CHEMBL1140105, “Synthesis of bivalent beta2-adrenergic and adenosine A1 receptor ligands” (J Med Chem, 2008).
Calls of active or inactive are those of the source. The calls are words filed in the database; no cut-off is given here.

Assays:
[1] = target: T1, Beta-2 adrenergic receptor (Mesocricetus auratus, UniProt P04274); assay: Agonist activity at adrenergic beta2 receptor in Syrian hamster DDT1 MF2 cells assessed as stimulation of cAMP accumulation by radioimmunoassay in presence of 1 uM DPCPX; format: functional, cell-based
T1 sequence (P04274 whole entry): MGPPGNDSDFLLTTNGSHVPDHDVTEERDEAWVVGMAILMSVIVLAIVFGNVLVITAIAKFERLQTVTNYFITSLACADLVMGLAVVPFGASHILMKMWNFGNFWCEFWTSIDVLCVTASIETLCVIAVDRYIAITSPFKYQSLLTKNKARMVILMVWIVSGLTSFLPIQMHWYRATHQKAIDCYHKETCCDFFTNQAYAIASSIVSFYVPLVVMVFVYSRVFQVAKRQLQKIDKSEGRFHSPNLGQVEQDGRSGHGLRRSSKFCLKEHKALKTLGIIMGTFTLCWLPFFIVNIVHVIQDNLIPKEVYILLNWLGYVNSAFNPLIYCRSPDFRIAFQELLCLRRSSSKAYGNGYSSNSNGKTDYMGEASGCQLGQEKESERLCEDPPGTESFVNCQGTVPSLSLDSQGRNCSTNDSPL

[2] = Displacement of [3H]DPCPX from adenosine A1 receptor in Syrian hamster DDT1 MF2 cells; format: cell-based, Mesocricetus auratus
[3] = target: Beta-2 adrenergic receptor (Mesocricetus auratus) (UniProt P04274); assay: Displacement of [125I](-)-iodopindolol from adrenergic beta2 receptor in Syrian hamster DDT1 MF2 cells at 10 uM; format: cell-based
Chain of Beta-2 adrenergic receptor (Mesocricetus auratus) (P04274 whole entry, looked up): as the sequence (P04274 whole entry) above

[4] = target: Beta-2 adrenergic receptor (Mesocricetus auratus) (UniProt P04274); assay: Agonist activity at adrenergic beta2 receptor in Syrian hamster DDT1 MF2 cells assessed as stimulation of cAMP accumulation up to 100 uM by radioimmunoassay in presence of 1 uM DPCPX; format: functional, cell-based
[5] = target: T1, Beta-2 adrenergic receptor; assay: Displacement of [125I](-)-iodopindolol from adrenergic beta2 receptor in Syrian hamster DDT1 MF2 cells; format: cell-based
[6] = target: Beta-2 adrenergic receptor (Mesocricetus auratus) (UniProt P04274); assay: Agonist activity at adrenergic beta2 receptor in Syrian hamster DDT1 MF2 cells assessed as stimulation of cAMP accumulation by radioimmunoassay in presence of 1 uM DPCPX relative to (-)-isoproterenol; format: functional, cell-based

EC50 [1]	inhibition [3]	Activity [4]	Ki [5]	Activity [6]	SMILES	Ki [2]
1090 nM	–	–	–	–	Nc1cc(C(O)CNCCCCNc2ncnc3c2ncn3[C@@H]2O[C@H](CO)[C@@H](O)[C@H]2O)ccc1O (stereo not given in full)	–
–	20%	inactive	> 10 µM	–	O=CNc1cc(C(O)CNCCNc2ncnc3c2ncn3[C@@H]2O[C@H](CO)[C@@H](O)[C@H]2O)ccc1O (stereo not given in full)	1980 nM
–	20%	inactive	> 10 µM	50%	Nc1cc(C(O)CNCCNc2ncnc3c2ncn3[C@@H]2O[C@H](CO)[C@@H](O)[C@H]2O)ccc1O (stereo not given in full)	2750 nM
